Measured values from ChEMBL document CHEMBL1201862, “PubChem BioAssay data set” (2004).
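Values below derive from 48-hour exposures of cells grown in 96-well plates, with endpoints linearly interpolated between the two concentrations bracketing the appropriate inhibition level. GI50 = concentration required for 50% inhibition of growth.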 Activity calls are given as the source filed them. Rule as the data show it: active = GI50 up to about 1.1 µM and inactive = higher.

Experiments:
Assay in all cases: inhibition of tumour cell growth, NCI panel, 48 h
BT-549 = test system: BT-549
HT-29 = test system: HT-29
RXF 393 = test system: RXF 393
MDA-N = test system: MDA-N
ACHN = test system: ACHN
UACC-257 = test system: UACC-257
MDA-MB-231 = test system: MDA-MB-231
SF-539 = test system: SF-539
EKVX = test system: EKVX
HCC 2998 = test system: HCC 2998
SK-MEL-2 = test system: SK-MEL-2
RPMI-8226 = test system: RPMI-8226
COLO 205 = test system: COLO 205
SK-MEL-28 = test system: SK-MEL-28
SR = test system: SR
SK-MEL-5 = test system: SK-MEL-5
T47D = test system: T47D
NCI-H226 = test system: NCI-H226
CAKI-1 = test system: CAKI-1

Compound | GI50 (BT-549) | GI50 (HT-29) | GI50 (RXF 393) | GI50 (MDA-N) | GI50 (ACHN) | GI50 (UACC-257) | GI50 (MDA-MB-231) | GI50 (SF-539) | GI50 (EKVX) | GI50 (HCC 2998) | GI50 (SK-MEL-2) | GI50 (RPMI-8226) | GI50 (COLO 205) | GI50 (SK-MEL-28) | GI50 (SR) | GI50 (SK-MEL-5) | GI50 (T47D) | GI50 (NCI-H226) | GI50 (CAKI-1)
COc1cc(C2c3cc4c(cc3OC3(OC)COC(=O)C23)OCO4)cc(OC)c1OC(C)=O (stereo unspecified) | 5 µM (inactive) | 2.47 µM (inactive) | 0.499 µM (active) | 0.206 µM (active) | 1.32 µM (inactive) | > 39.4 µM (inactive) | 2.9 µM (inactive) | 0.374 µM (active) | > 35.8 µM (inactive) | 2.75 µM (inactive) | 1.84 µM (inactive) | 1.81 µM (inactive) | 3.87 µM (inactive) | 2.27 µM (inactive) | 2.53 µM (inactive) | 0.726 µM (active) | > 100 µM (inactive) | 1.13 µM (inactive) | –
COc1ccc(CCN2COc3ccc4ccc(=O)oc4c3C2)cc1OC | > 100 µM (inactive) | 78.5 µM (inactive) | 85.7 µM (inactive) | > 100 µM (inactive) | > 100 µM (inactive) | > 100 µM (inactive) | > 100 µM (inactive) | > 100 µM (inactive) | > 100 µM (inactive) | > 100 µM (inactive) | > 100 µM (inactive) | 22.4 µM (inactive) | > 100 µM (inactive) | > 100 µM (inactive) | 24.3 µM (inactive) | 58.1 µM (inactive) | > 100 µM (inactive) | > 100 µM (inactive) | > 100 µM (inactive)
c1cc(-c2ccc(-c3nc4ccc(C5=NCCN5)cc4s3)s2)ccc1C1=NCCN1 | 1.23 µM (inactive) | 0.596 µM (active) | 0.152 µM (active) | 0.723 µM (active) | 0.562 µM (active) | 22.5 µM (inactive) | 0.234 µM (active) | 0.296 µM (active) | 1.28 µM (inactive) | 0.0292 µM (active) | 1.27 µM (inactive) | 0.295 µM (active) | 1.11 µM (active) | 1.71 µM (inactive) | 0.231 µM (active) | 0.955 µM (active) | 0.483 µM (active) | 0.308 µM (active) | 1.51 µM (inactive)
CCOC(=O)/C=C(/C(=O)OCC)n1ccc(=O)n(/C(=C/C(=O)OCC)C(=O)OCC)c1=O | 15.3 µM (inactive) | 7.74 µM (inactive) | 3.68 µM (inactive) | 13.5 µM (inactive) | 3 µM (inactive) | 10.6 µM (inactive) | 16.6 µM (inactive) | 18.1 µM (inactive) | 11.4 µM (inactive) | 18.4 µM (inactive) | 12.7 µM (inactive) | 2.7 µM (inactive) | 1.95 µM (inactive) | 13.1 µM (inactive) | 5.28 µM (inactive) | 14.5 µM (inactive) | 4.48 µM (inactive) | 8.07 µM (inactive) | 1.66 µM (inactive)
O=C1C(c2c(O)[nH]c3ccc(Br)cc23)=Nc2ccc(Br)cc21 | 70.6 µM (inactive) | 48.4 µM (inactive) | 16.6 µM (inactive) | 31.2 µM (inactive) | > 100 µM (inactive) | > 100 µM (inactive) | 20 µM (inactive) | – | 38.1 µM (inactive) | > 100 µM (inactive) | > 100 µM (inactive) | > 100 µM (inactive) | > 100 µM (inactive) | > 100 µM (inactive) | 32.1 µM (inactive) | > 100 µM (inactive) | > 100 µM (inactive) | > 100 µM (inactive) | > 100 µM (inactive)
COC(=O)NN=C(c1ccc(Cl)cc1)c1ccc(Cl)cc1 | 80.2 µM (inactive) | 58.6 µM (inactive) | 22.4 µM (inactive) | > 100 µM (inactive) | – | > 100 µM (inactive) | > 100 µM (inactive) | 93.8 µM (inactive) | > 100 µM (inactive) | > 100 µM (inactive) | > 100 µM (inactive) | > 100 µM (inactive) | 51.2 µM (inactive) | > 100 µM (inactive) | 94.2 µM (inactive) | > 100 µM (inactive) | > 100 µM (inactive) | > 100 µM (inactive) | > 100 µM (inactive)
CCCCCC(C)SC1(C(=O)OC)CC(OC(C)=O)C(NC(C)=O)C([C@H](OC(C)=O)[C@@H](COC(C)=O)OC(C)=O)O1 (stereo partly specified) | 55.6 µM (inactive) | 22.5 µM (inactive) | 88.1 µM (inactive) | 90.6 µM (inactive) | > 100 µM (inactive) | 33 µM (inactive) | 41.9 µM (inactive) | 22.3 µM (inactive) | – | 30.2 µM (inactive) | 0.245 µM (active) | 33.7 µM (inactive) | – | > 100 µM (inactive) | 64 µM (inactive) | 91.2 µM (inactive) | 45.6 µM (inactive) | 40.6 µM (inactive) | 93.3 µM (inactive)
CN1N=C(c2ccccc2)c2cc(Cl)ccc2N=C1N/N=C/c1ccc(N(C)C)cc1 | > 100 µM (inactive) | > 100 µM (inactive) | > 100 µM (inactive) | > 100 µM (inactive) | > 100 µM (inactive) | > 100 µM (inactive) | 97.7 µM (inactive) | > 100 µM (inactive) | > 100 µM (inactive) | > 100 µM (inactive) | – | 70.5 µM (inactive) | > 100 µM (inactive) | > 100 µM (inactive) | 49.2 µM (inactive) | > 100 µM (inactive) | > 100 µM (inactive) | 58.1 µM (inactive) | > 100 µM (inactive)
